Measured values reported in patent US6703506B2, “Amino acid ester containing azole antifungals” (Janssen Pharmaceutica, N.V., priority 1997, dated 2004).
Values after ≈ are worked out from the molar mass of the structure shown.

Legend:
[1] = Solubility (excess compound shaken 1 day at room temperature, HPLC); assay type: physicochemical; details: thermodynamic from solid
Method: An excess of compound was added to the solvent (the type of solvent is specified in table 6) The mixture was shaken during 1 day at room temperature. The precipitate was filtered off. The concentration of the compound was measured via HPLC and is shown in the column “Solubility”.

[2] = Chemical stability (open glass jar, 40° C., 75% relative humidity); assay type: physicochemical; details: 50 mg, after one week
Method: After one week, the amount of test compound remaining was determined.

Aspergillus fumigatus [3] = assay: Determination of fungal susceptibility (MIC); assay type: cell-based; details: CYG medium, 5 days at 30° C., growth to 35% of control or less
Method: (§1) A panel of Candida isolates plus single isolates of the dermatophytes Microsporum canis, Trichophyton rubrum and T. mentagrophytes; Aspergillus fumigates, and Cryptococcus neoformans were used to evaluate the activity of the test compounds in vitro. Inocula were prepared as broth cultures (yeasts) or as suspensions of fungal material made from agar slope cultures (moulds). The test compounds were pipetted from DMSO stock solution into water to provide a series of 10-fold dilutions. The fungal inocula were suspended in the growth medium CYG (F. C. Odds, Journal of Clinical Microbiology, 29, (2735-2740, 1991) at approximately 50,000 colony-forming units (CFU) per ml and added to the aqueous test drugs. The cultures were set up in the 96 wells of plastic microdilution plates and they were incubated for 2 days at 37° C. (Candida spp.) or for 5 days at 30° C. (other fungi). Growth in the microcultures was measured by their optical density (OD) measured at a wavelength of 405 nm. The OD for cultures with test compounds was calculated as a percentage of the control, drug-free OD. Inhibition of growth to 35% of control or less was recorded as significant inhibition.
(§2) Minimal inhibitory concentration (MICs; in 10^−6 M) of intermediate 2 as the major metabolite and some of the compounds of formula (I) for Candida glabrata, Candida krusel, Candida parapsilosis, Candida albicans, Candida kefyr, Candida tropicalis, Microsporum canis, Trichophyton rubrum, Trichophyton mentagrophytes, Cryptococcus neoformans, Aspergillus fumigatus are listed in table 8.

Candida albicans [4] = assay: Determination of fungal susceptibility (MIC); assay type: cell-based; details: CYG medium, 2 days at 37° C., growth to 35% of control or less
Method: as §1, §2

Candida glabrata = assay: Determination of fungal susceptibility (MIC); assay type: cell-based; details: CYG medium, 2 days at 37° C., growth to 35% of control or less
Method: as §1, §2

Candida kefyr = assay: Determination of fungal susceptibility (MIC); assay type: cell-based; details: CYG medium, 2 days at 37° C., growth to 35% of control or less
Method: as §1, §2

Candida krusei = assay: Determination of fungal susceptibility (MIC); assay type: cell-based; details: CYG medium, 2 days at 37° C., growth to 35% of control or less
Method: as §1, §2

Candida parapsilosis = assay: Determination of fungal susceptibility (MIC); assay type: cell-based; details: CYG medium, 2 days at 37° C., growth to 35% of control or less
Method: as §1, §2

Candida tropicalis = assay: Determination of fungal susceptibility (MIC); assay type: cell-based; details: CYG medium, 2 days at 37° C., growth to 35% of control or less
Method: as §1, §2

Cryptococcus neoformans = assay: Determination of fungal susceptibility (MIC); assay type: cell-based; details: CYG medium, 5 days at 30° C., growth to 35% of control or less
Method: as §1, §2

Microsporum canis = assay: Determination of fungal susceptibility (MIC); assay type: cell-based; details: CYG medium, 5 days at 30° C., growth to 35% of control or less
Method: as §1, §2

[5] = tested on: Trichophyton mentagrophytes; assay: Determination of fungal susceptibility (MIC); assay type: cell-based; details: CYG medium, 5 days at 30° C., growth to 35% of control or less
Method: as §1, §2

Trichophyton rubrum = assay: Determination of fungal susceptibility (MIC); assay type: cell-based; details: CYG medium, 5 days at 30° C., growth to 35% of control or less
Method: as §1, §2

Aspergillus fumigatus [6] = assay: Disseminated aspergillosis in guinea-pigs; assay type: in vivo; details: for CFU/g (liver): culture-positive livers post mortem; for % neg (total percentage culture-negative deep tissues): liver, spleen, kidney, lung and brain
Method: (§3) Specific pathogen-free (SPF) guinea-pigs (weighing 400-500 g) were used in all experiments. A catheter was placed into the left jugular vein of the animals that were treated by intravenous infusion, the vein was ligated, and the catheter was connected to a microprocessor-controlled infusion pump. The animals were infected with Aspergillus fumigatus (4,000 CFU/g body weight) or with Candida albicans (40,000 CFU/g body weight) either via the lateral vein of the penis or via the implanted catheter. Intravenous treatments (5 mg/kg/day) began 1 hour after infection. The test formulations were then administered on subsequent days as two, 1 hour infusions daily, separated by a period of 5 hours, for a total of 19 infusions or 9.5 days. Oral treatments with the test compounds (5 mg/kg/day) begun 1 hour after infection and were repeated twice daily up to the tenth day after infection (a total of 19 treatments. For each group of tested animals (number of tested animals per group given in column “N”), the mean survival time (MST) in days was recorded as well as the % survivors (% surv). Animals of each group which died during the experiment and those that survived the experiment and were killed, were investigated for counts of Aspergillus fumigatus and Candida albicans in deep tissue (liver, spleen, kidney, lung and brain) post mortem. The remaining CFU/g in the culture-positive livers was measured and expressed in table 9 (after intravenous treatment) and table 10 (after oral treatment) as mean log10 CFU/g. The columns “%neg” in tables 9 and 10 express the total percentage culture-negative deep tissues after the treatment.

Candida albicans [7] = assay: Disseminated candidosis in guinea-pigs; assay type: in vivo; details: for CFU/g (liver): culture-positive livers post mortem; for % neg (total percentage culture-negative deep tissues): liver, spleen, kidney, lung and brain
Method: as §3

[8] = i.v. treatment 5 mg/kg/day, 19 infusions, 9.5 days
[9] = oral treatment 5 mg/kg/day, twice daily, 19 treatments

Q: Which solubility at 1 day ([1]; aqueous buffer, solvent 0.0001M HCl, final pH in column pH of the same row (3.17-6.68)) does the source give for C[C@H](OC(=O)[C@@H](N)Cc1ccccc1)[C@H](C)n1ncn(-c2ccc(N3CCN(c4ccc(OC[C@@H]5CO[C@@](Cn6cncn6)(c6ccc(F)cc6F)O5)cc4)CC3)cc2)c1=O (relative stereo) [Compound 23, [2S-[2α,4α[(R*,R*)]]]-2-[4-[4-[4-[4-[[2-(2,4-difluorophenyl)-2-(1H-1,2,4-triazol-1-ylmethyl)-1,3-dioxolan-4-yl]methoxy]-phenyl]-1-piperazinyl]-phenyl]-4,5-dihydro-5-oxo-1H-1,2,4-triazol-1-yl]-1-methylpropyl L-phenylalanine] here?
A: Its solubility at 1 day is 20 µg/mL (≈ 23.9 µM).

Q: And the solubility at 1 day ([1]; simulated gastric fluid, solvent 0.1M HCl, final pH in column pH of the same row (1.23-1.55))?
A: The solubility at 1 day was over 5560 µg/mL.

Q: What about the “Stability (amount of test compound remaining)” value [2] of the same molecule?
A: The value was 99.7%.

Q: And the MIC (Aspergillus fumigatus [3])?
A: Its MIC is 1 10^−6 M.

Q: And the MIC (Candida albicans [4])?
A: Its MIC is <0.1 10^−6 M.

Q: What about the MIC (Candida glabrata) of the same molecule?
A: Its MIC is 10 10^−6 M.

Q: And the MIC (Candida kefyr)?
A: The MIC was <0.1 10^−6 M.

Q: And the MIC (Candida krusei)?
A: Its MIC is 1 10^−6 M.

Q: What about the MIC (Candida parapsilosis) of the same molecule?
A: Its MIC is <0.1 10^−6 M.

Q: What about the MIC (Candida tropicalis) of the same molecule?
A: Its MIC is <0.1 10^−6 M.

Q: What about the MIC (Cryptococcus neoformans) of the same molecule?
A: The MIC was 1 10^−6 M.

Q: And the MIC (Microsporum canis)?
A: Its MIC is <1 10^−6 M.

Q: And the MIC [5]?
A: Its MIC is 1 10^−6 M.

Q: What about the MIC (Trichophyton rubrum) of the same molecule?
A: Its MIC is <0.1 10^−6 M.

Q: What about the “CFU/g (liver)” value (Aspergillus fumigatus [6]; i.v. treatment 5 mg/kg/day) of the same molecule?
A: The value was 3.6 mean log10 CFU/g.

Q: And the “CFU/g (liver)” value (Aspergillus fumigatus [6]; oral treatment 5 mg/kg/day)?
A: The value was 3.0 mean log10 CFU/g.

Q: What about the “% surv (% survivors)” value (Aspergillus fumigatus [6]; [8]) of the same molecule?
A: The value was 83.3%.

Q: What about the “MST (mean survival time)” value (Aspergillus fumigatus [6]; [8]) of the same molecule?
A: The value was 9.2 days.

Q: What about the “% neg (total percentage culture-negative deep tissues)” value (Aspergillus fumigatus [6]; i.v. treatment 5 mg/kg/day) of the same molecule?
A: Its value is 71%.

Q: What about the “% neg (total percentage culture-negative deep tissues)” value (Aspergillus fumigatus [6]; oral treatment 5 mg/kg/day) of the same molecule?
A: The value was 55%.

Q: And the “% surv (% survivors)” value (Aspergillus fumigatus [6]; [9])?
A: Its value is 30%.

Q: What about the “MST (mean survival time)” value (Aspergillus fumigatus [6]; [9]) of the same molecule?
A: The value was 7.8 days.

Q: What about the “CFU/g (liver)” value (Candida albicans [7]; i.v. treatment 5 mg/kg/day) of the same molecule?
A: Its value is 0 mean log10 CFU/g.

Q: What about the “CFU/g (liver)” value (Candida albicans [7]; oral treatment 5 mg/kg/day) of the same molecule?
A: Its value is 0 mean log10 CFU/g.

Q: And the “% surv (% survivors)” value (Candida albicans [7]; [8])?
A: Its value is 83.3%.

Q: And the “MST (mean survival time)” value (Candida albicans [7]; [8])?
A: The value was 9.8 days.

Q: What about the “% neg (total percentage culture-negative deep tissues)” value (Candida albicans [7]; i.v. treatment 5 mg/kg/day) of the same molecule?
A: Its value is 79%.

Q: And the “% neg (total percentage culture-negative deep tissues)” value (Candida albicans [7]; oral treatment 5 mg/kg/day)?
A: Its value is 73%.

Q: What about the “% surv (% survivors)” value (Candida albicans [7]; [9]) of the same molecule?
A: The value was 100%.

Q: And the “MST (mean survival time)” value (Candida albicans [7]; [9])?
A: The value was 10 days.
